“And” between values parts separate entries of the source, which are not always exact repeats. Identical values can stand only once. Inconclusive results and toxic doses are left out. No stated cut-off is given here; in the data, active means T/C of 150% or more; inactive means T/C below 125%.
Test system: L1210 leukemia ip in BDF1 mice, survival T/C
Assay: NCI In Vivo Anticancer Drug Screen. Data for tumor model L1210 Leukemia (intraperitoneal) in B6D2F1 (BDF1) mice
Details: endpoint: mean survival time, higher = longer survival
Outline: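 Transplantable tumor model; survival measured in treated vs vehicle control mice. Value = treated/control.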

[1] = dose: 12.5 mg/kg/injection, schedule: Q04DX003 (ip), vehicle: saline
[2] = dose: 25.0 mg/kg/injection, schedule: Q04DX003 (ip), vehicle: saline
[3] = dose: 100.0 mg/kg/injection, schedule: Q01DX001 (ip), vehicle: saline
[4] = dose: 200.0 mg/kg/injection, schedule: Q01DX001 (ip), vehicle: saline
[5] = dose: 400.0 mg/kg/injection, schedule: Q01DX001 (ip), vehicle: saline
[6] = dose: 100.0 mg/kg/injection, schedule: Q01DX009 (ip), vehicle: saline with Tween-80
[7] = dose: 200.0 mg/kg/injection, schedule: Q01DX009 (ip), vehicle: saline with Tween-80
[8] = dose: 400.0 mg/kg/injection, schedule: Q01DX009 (ip), vehicle: saline with Tween-80
[9] = dose: 100.0 mg/kg/injection, schedule: Q04DX003 (ip), vehicle: Klucel (hydroxypropylcellulose) (HPC)
[10] = dose: 200.0 mg/kg/injection, schedule: Q04DX003 (ip), vehicle: Klucel (hydroxypropylcellulose) (HPC)
[11] = dose: 400.0 mg/kg/injection, schedule: Q04DX003 (ip), vehicle: Klucel (hydroxypropylcellulose) (HPC)

Measured: T/C

OCCN1CCN(CC/C=C2\c3ccccc3Sc3ccc(Cl)cc32)CC1
inactive: dose: 0.39 mg/kg/injection, schedule: Q03HX024 (ip), vehicle: saline 100 % of control | dose: 0.78 mg/kg/injection, schedule: Q03HX024 (ip), vehicle: saline 94 % of control | dose: 1.0 mg/kg/injection, schedule: Q01DX009 (ip), vehicle: saline 101 % of control and 87 % of control | dose: 1.56 mg/kg/injection, schedule: Q03HX024 (ip), vehicle: saline 107 % of control | dose: 2.0 mg/kg/injection, schedule: Q01DX009 (ip), vehicle: saline 95 % of control and 103 % of control | dose: 3.12 mg/kg/injection, schedule: Q01DX009 (ip), vehicle: saline 104 % of control | dose: 3.12 mg/kg/injection, schedule: Q03HX024 (ip), vehicle: saline 111 % of control | dose: 3.12 mg/kg/injection, schedule: Q04DX003 (ip), vehicle: saline 106 % of control | dose: 4.0 mg/kg/injection, schedule: Q01DX009 (ip), vehicle: saline 100 % of control and 106 % of control | dose: 6.25 mg/kg/injection, schedule: Q01DX009 (ip), vehicle: saline 120 % of control | dose: 6.25 mg/kg/injection, schedule: Q04DX003 (ip), vehicle: saline 100 % of control and 105 % of control | dose: 8.0 mg/kg/injection, schedule: Q01DX009 (ip), vehicle: saline 106 % of control and 115 % of control | dose: 9.37 mg/kg/injection, schedule: Q01DX001 (ip), vehicle: saline 106 % of control | dose: 12.5 mg/kg/injection, schedule: Q01DX009 (ip), vehicle: saline 120 % of control and 86 % of control | [1] 108 % of control and 116 % of control | dose: 16.0 mg/kg/injection, schedule: Q01DX009 (ip), vehicle: saline 115 % of control and 89 % of control | dose: 18.75 mg/kg/injection, schedule: Q01DX001 (ip), vehicle: saline 100 % of control | dose: 20.0 mg/kg/injection, schedule: Q04DX003 (ip), vehicle: saline 115 % of control | dose: 25.0 mg/kg/injection, schedule: Q01DX009 (ip), vehicle: saline 124 % of control | [2] 119 % of control | dose: 37.5 mg/kg/injection, schedule: Q01DX001 (ip), vehicle: saline 105 % of control | dose: 40.0 mg/kg/injection, schedule: Q04DX003 (ip), vehicle: saline 105 % of control | dose: 75.0 mg/kg/injection, schedule: Q01DX001 (ip), vehicle: saline 105 % of control

O=P(O)(O)CN(CP(=O)(O)O)CP(=O)(O)O
inactive: [3] 101 % of control | [4] 94 % of control | [5] 89 % of control

CN(C)c1ccc(C2=CC3CCCC(C2)N3C)cc1 (stereo unspecified)
inactive: [1] 100 % of control | [2] 97 % of control

COC1OC(COC(=O)c2ccccc2)C(OC(=O)c2ccccc2)C(OC(=O)c2ccccc2)C1OC(=O)c1ccccc1 (stereo unspecified)
inactive: [6] 116 % of control | [7] 107 % of control | [8] 107 % of control

Cc1ccc(S(=O)(=O)OC2C(C)C3CS(=O)(=O)C32)cc1 (stereo unspecified)
inactive: dose: 100.0 mg/kg/injection, schedule: Q04DX002 (ip), vehicle: DMSO 119 % of control | dose: 200.0 mg/kg/injection, schedule: Q04DX002 (ip), vehicle: DMSO 105 % of control | dose: 400.0 mg/kg/injection, schedule: Q04DX002 (ip), vehicle: DMSO 102 % of control

CC(O)(Cc1ccccc1)c1ccccc1 (stereo unspecified)
inactive: dose: 44.0 mg/kg/injection, schedule: Q04DX003 (ip), vehicle: saline with Tween-80 94 % of control | dose: 66.0 mg/kg/injection, schedule: Q04DX003 (ip), vehicle: saline with Tween-80 94 % of control | [6] 102 % of control | dose: 100.0 mg/kg/injection, schedule: Q04DX003 (ip), vehicle: saline with Tween-80 94 % of control | dose: 150.0 mg/kg/injection, schedule: Q04DX003 (ip), vehicle: saline with Tween-80 96 % of control | [7] 98 % of control | dose: 200.0 mg/kg/injection, schedule: Q04DX003 (ip), vehicle: saline with Tween-80 107 % of control | [8] 102 % of control | dose: 400.0 mg/kg/injection, schedule: Q04DX003 (ip), vehicle: saline with Tween-80 104 % of control

CC(C)CCNNCCC(C)C
inactive: dose: 75.0 mg/kg/injection, schedule: Q01DX001 (ip), vehicle: other 108 % of control | dose: 150.0 mg/kg/injection, schedule: Q01DX001 (ip), vehicle: other 104 % of control

O=c1[nH]cncc1F
inactive: dose: 264.0 mg/kg/injection, schedule: Q01DX001 (ip), vehicle: saline 92 % of control | [5] 100 % of control and 112 % of control

CC(/C=N/O)=C1C=CC=C1
inactive: dose: 100.0 mg/kg/injection, schedule: Q01DX001 (ip), vehicle: Klucel (hydroxypropylcellulose) (HPC) 94 % of control | dose: 100.0 mg/kg/injection, schedule: Q01DX009 (ip), vehicle: Klucel (hydroxypropylcellulose) (HPC) 98 % of control | [9] 102 % of control | dose: 200.0 mg/kg/injection, schedule: Q01DX001 (ip), vehicle: Klucel (hydroxypropylcellulose) (HPC) 92 % of control | dose: 200.0 mg/kg/injection, schedule: Q01DX009 (ip), vehicle: Klucel (hydroxypropylcellulose) (HPC) 100 % of control | [10] 98 % of control | dose: 400.0 mg/kg/injection, schedule: Q01DX001 (ip), vehicle: Klucel (hydroxypropylcellulose) (HPC) 97 % of control | dose: 400.0 mg/kg/injection, schedule: Q01DX009 (ip), vehicle: Klucel (hydroxypropylcellulose) (HPC) 105 % of control | [11] 102 % of control

O=[N+]([O-])c1ccc(Oc2cccc(Cl)c2)c(Cl)c1
inactive: [3] 112 % of control | [4] 109 % of control | [5] 105 % of control

CCOc1ccccc1/C=N/Nc1nnc(N/N=C/c2ccccc2OCC)c2ccccc12
inactive: dose: 50.0 mg/kg/injection, schedule: Q01DX001 (ip), vehicle: carboxymethylcellulose (CMC) 91 % of control | dose: 100.0 mg/kg/injection, schedule: Q01DX001 (ip), vehicle: carboxymethylcellulose (CMC) 97 % of control | dose: 200.0 mg/kg/injection, schedule: Q01DX001 (ip), vehicle: carboxymethylcellulose (CMC) 97 % of control | dose: 400.0 mg/kg/injection, schedule: Q01DX001 (ip), vehicle: carboxymethylcellulose (CMC) 91 % of control

CCCCCCCCCCCCCCCC(=O)Nc1ccc(C(=O)O)cc1
inactive: [9] 95 % of control | [10] 94 % of control | [11] 94 % of control

C1CCC(CCC(CCCC2CCCC2)CCC2CCCCC2)CC1
inactive: dose: 100.0 mg/kg/injection, schedule: Q01DX001 (ip), vehicle: saline with Tween-80 94 % of control | dose: 200.0 mg/kg/injection, schedule: Q01DX001 (ip), vehicle: saline with Tween-80 94 % of control | dose: 400.0 mg/kg/injection, schedule: Q01DX001 (ip), vehicle: saline with Tween-80 102 % of control

COC(=O)c1cc(C)c(C(=O)OC)cc1C
inactive: dose: 100.0 mg/kg/injection, schedule: Q01DX009 (ip), vehicle: saline sonified 97 % of control | dose: 200.0 mg/kg/injection, schedule: Q01DX009 (ip), vehicle: saline sonified 91 % of control | dose: 400.0 mg/kg/injection, schedule: Q01DX009 (ip), vehicle: saline sonified 88 % of control

CN(C)Cc1cc(C(C)(C)C)ccc1O
inactive: dose: 100.0 mg/kg/injection, schedule: Q04DX003 (ip), vehicle: saline 95 % of control | dose: 200.0 mg/kg/injection, schedule: Q04DX003 (ip), vehicle: saline 91 % of control

CS(C)(C)N1C(=O)c2ccccc2C1=O
inactive: dose: 87.5 mg/kg/injection, schedule: Q01DX009 (ip), vehicle: Klucel (hydroxypropylcellulose) (HPC) 98 % of control | dose: 175.0 mg/kg/injection, schedule: Q01DX009 (ip), vehicle: Klucel (hydroxypropylcellulose) (HPC) 96 % of control

c1ccc2c(c1)Sc1ccccc1N2C[C@H]1CCCN2CCCC[C@H]12
inactive: dose: 75.0 mg/kg/injection, schedule: Q01DX009 (ip), vehicle: Klucel (hydroxypropylcellulose) (HPC) 102 % of control | dose: 75.0 mg/kg/injection, schedule: Q04DX003 (ip), vehicle: Klucel (hydroxypropylcellulose) (HPC) 102 % of control | dose: 150.0 mg/kg/injection, schedule: Q01DX009 (ip), vehicle: Klucel (hydroxypropylcellulose) (HPC) 91 % of control | dose: 150.0 mg/kg/injection, schedule: Q04DX003 (ip), vehicle: Klucel (hydroxypropylcellulose) (HPC) 97 % of control | dose: 300.0 mg/kg/injection, schedule: Q01DX009 (ip), vehicle: Klucel (hydroxypropylcellulose) (HPC) 89 % of control | dose: 300.0 mg/kg/injection, schedule: Q04DX003 (ip), vehicle: Klucel (hydroxypropylcellulose) (HPC) 102 % of control

OCC(O)C(O)C(O)C(c1ccc(F)cc1)c1ccc(F)cc1 (stereo unspecified)
inactive: dose: 50.0 mg/kg/injection, schedule: Q01DX001 (ip), vehicle: saline 97 % of control | [3] 100 % of control | [4] 100 % of control | [5] 103 % of control

Reference: PubChem BioAssay AID248 (DTP/NCI, 2004)
